The values below come from patent US20130171139A1, “NCAM-VASE AND NEURODEGENERATION” (priority 2010, published 2013).

Common to all, as to type: cell-based
One assay deals with NCAM-VASE. Nature of the assay: NCAM-VASE staining of cultured cortical astrocytes. To be noted: PND4 rat cortical astrocytes; 2 days; 1 mM dbcAMP or 50 ng/ml FGF-2. Here is the method: (§1) Expression of NCAM-VASE by astrocytes was also examined. Astrocytes (>90% GFAP-positive cells) were isolated from the cortices of PND4 rat and cultured for 2 days in the absence or presence of 1 mM dbcAMP or 50 ng/ml FGF-2 in DMEM/10% FBS. Treatment with dbcAMP or FGF is known to stimulate a reactive phenotype in astrocytes, such as is found in astrocytes in the glial scars that are characteristic of damaged CNS. The astrocytes were then fixed and costained for GFAP and NCAM-VASE (as shown in FIG. 4) or total NCAM (not shown).

A further assay has as its system total NCAM. Nature of the assay: Total NCAM staining of cultured cortical astrocytes. To be noted: PND4 rat cortical astrocytes; 2 days; 1 mM dbcAMP or 50 ng/ml FGF-2. Here is the method: as §1
Assay [1] deals with PND4 rat cerebellar granule neurons. Kind of assay: Neurite/axon outgrowth of cerebellar granule neurons cultured on 3T3 monolayers (control, NCAM or NCAM-VASE). The settings on record: FGF (0.1 ng/m) or forskolin added to culture medium. As for the experimental part:
It has previously been shown that soluble NCAM-Fc stimulates axon outgrowth over control monolayers as effectively as if it were expressed in the monolayer (Meiri et al, J. Neurosci, 1998, 18, 10429-10437). […]
[…] Cerebellar granule neurons were cultured on control, NCAM-expressing (NCAM) or NCAM-VASE-expressing (VASE) monolayers in the absence of presence of soluble NCAM-Fc or NCAM-VASE-Fc (VASE-Fc).

Consider `CCCC(=O)Nc1ncnc2c1ncn2[C@@H]1O[C@@H]2COP(=O)(O)O[C@H]2[C@H]1OC(=O)CCC` [dBcAMP, dbcAMP, reference compound], for which the NCAM-VASE staining entry in the assay on NCAM-VASE was “large upregulation”. In the assay on total NCAM, the “total NCAM staining” value is listed as “large upregulation”.
Take “FGF2: fibroblast growth factor, known to stimulate axon outgrowth from cerebellar granule neurons”: in the assay with NCAM-VASE, the NCAM-VASE staining result is reported as “large upregulation”. In addition, the “total NCAM staining” value with total NCAM is recorded as “large upregulation”. In assay [1] (NCAM-VASE-expressing monolayers), the axon length entry is on record as “do not extend longer axons”. Besides, the axon outgrowth result in assay [1] (control monolayers) is reported as “stimulate axon outgrowth”.
